These results are taken from paper PMC7738871, “Covalent modification of Keap1 at Cys77 and Cys434 by pubescenoside a suppresses oxidative stress-induced NLRP3 inflammasome activation in myocardial ischemia-reperfusion injury” (Theranostics, 2021).

The target in one assay is T1, Keap1 C77S (Homo sapiens, UniProt Q14145, C77S).
T1 construct: His (N); made in house; host or cells: E. coli BL21 (DE3)
Put plainly: ITC titration of PBA with Keap1-C77S. Format: binding. The settings on record: 25 ℃. The procedure: The Keap1 was amplified by PCR using a human cDNA library, and was subcloned into the vector pET28-TEV, which contained one tobacco etch virus (TEV) protease cleavage site at the upstream multiple cloning site. The protein was expressed in E. coli BL21 (DE3) cells and incubated at 37 °C until the OD600 value reached 0.6, using 0.2 mM isopropyl β-D-1-thiogalactopyranoside (IPTG) overnight induction at 18 °C. The cells were isolated by centrifugation, resuspended in ice-cold lysis buffer and lysed by cryogenic overpressure cell breaker at 1,200 psi. The lysates were centrifuged for 60 min at 14,000 rpm to obtain the supernatant. Gravity flow purification of Keap1 protein was obtained at room temperature using 1 mL of Ni-NTA and eluted in buffer containing 250 mM imidazole, followed by 1 mL of HiTrap QHP for the second step purification. The final protein was purified and validated by Superdex 200 10/300GL resin.
The mutant plasmid DNA was obtained by PCR. The PCR products were cleaved by DpnI restriction enzymes. The restriction endonuclease-cleaved mixture was subsequently transformed into E. coli DH5α. Colonies were evaluated by colony PCR and sequenced. The mutant plasmid was transformed into E. coli BL21 (DE3) after successful sequencing. The steps for expression and purification of all recombinants were described above.
Isothermal calorimetry (ITC) titration experiments were performed at 25 °C. WT Keap1, Keap1 mutants and PBA were dissolved in binding buffer (40 mM Tris-HCl pH 8.0, 250 mM NaCl). In a typical experiment, 60 μL of PBA (1 mM) was injected 19 times at 2-min intervals from a stirring syringe into the sample cell containing 300 μL of WT protein or mutants (30 μM). The first injection was 0.4 μL of PBA, and the subsequent 18 injections were 2 μL each time. The site-binding models were determined by using MicroCal Origin software.

The subject of the next assay is NLRP3 inflammasome. Kind of assay: OGD/R-induced NLRP3 inflammasome activation in H9c2. Format: cell-based, rat. The settings on record: H9c2, OGD 6 h, reperfusion 18 h, dose-dependent. As for the experimental part: For OGD/R treatment, H9c2 cells were washed twice with phosphate buffered saline (PBS). The medium was changed to glucose and serum free DMEM, and H9c2 cells were incubated in an incubator with 95% N2 and 5% CO2 at 37 °C. After 6 h, the medium was replaced with DMEM containing 10% FBS and 1% PS. Then H9c2 cells were returned to a normal incubator with 5% CO2 balanced with air at 37 °C for the indicated time.
Total protein was isolated from H9c2 cells, primary mouse cardiomyocytes, RAW264.7 cells and heart tissue using 1X RIPA buffer containing phosphatase and proteinase inhibitors at 4 °C. After measurement of the concentration, the cell lysates were separated by sodium dodecyl sulphate polyacrylamide gel electrophoresis (SDS-PAGE) and transferred to polyvinylidene fluoride (PVDF) membranes. […] After the membranes was washed by TBST buffer for three times, they were incubated with horseradish peroxidase (HRP)-conjugated secondary mouse or rabbit antibodies (1:3,000 dilution) at room temperature (RT) for 1.5 h and then detected by SuperEnhanced chemiluminescence (ECL) reaction reagents (GBCBIO Technologies Inc., Guangzhou, Guangdong, China). […] After letting the membranes stand for 1-2 min, the bands of the respective proteins were detected with the exposure time of 10 ~60 s.

T1 sequence (Q14145 whole entry C77S): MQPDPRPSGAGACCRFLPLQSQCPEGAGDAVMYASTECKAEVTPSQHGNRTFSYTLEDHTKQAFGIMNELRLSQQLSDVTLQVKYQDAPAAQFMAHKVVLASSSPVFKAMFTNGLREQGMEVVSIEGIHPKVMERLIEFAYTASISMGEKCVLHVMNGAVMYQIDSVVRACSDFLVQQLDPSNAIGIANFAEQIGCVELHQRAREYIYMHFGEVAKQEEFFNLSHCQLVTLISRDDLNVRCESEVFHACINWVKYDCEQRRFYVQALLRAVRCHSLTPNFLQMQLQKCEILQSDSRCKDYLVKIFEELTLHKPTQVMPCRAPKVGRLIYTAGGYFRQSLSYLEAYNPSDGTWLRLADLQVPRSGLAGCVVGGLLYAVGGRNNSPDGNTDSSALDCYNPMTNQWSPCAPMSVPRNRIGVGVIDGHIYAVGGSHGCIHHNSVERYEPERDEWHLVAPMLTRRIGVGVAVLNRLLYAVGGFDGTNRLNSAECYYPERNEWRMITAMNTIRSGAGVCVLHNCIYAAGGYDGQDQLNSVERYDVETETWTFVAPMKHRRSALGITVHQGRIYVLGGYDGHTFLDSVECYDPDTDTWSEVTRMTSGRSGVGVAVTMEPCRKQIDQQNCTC

Consider `C=C(COC(=O)C=Cc1ccc(O)c(O)c1)C(O)COC1OC(CO)C(O)C(O)C1O` (centres unmarked) [PBA, pubescenoside A], for which, on Keap1 C77S, the Kd was determined as 19.5 µM, the “T△S” value came out at 0.78 ± 0.00 kcal/mol, the “△G” value is -6.43 ± 0.00 kcal/mol and the “△H” value is -5.65 ± 0.866 kcal/mol. Further, the “OGD/R-induced inflammasome activation (NLRP3, cleaved-caspase1, mature IL-1β)” value with NLRP3 inflammasome is “substantially inhibited”.
